{"source": "ChEMBL document CHEMBL5505993", "about": "“Identification of a ferritinophagy inducer via sinomenine modification for the treatment of colorectal cancer” (Eur J Med Chem, 2024)", "key": {"[1]": {"test_system": "HCT-116", "test": "Induction of ferroptosis in human HCT-116 cells assessed as effect on GPX4 protein expression at 5 to 20 uM incubated for 12 hrs by Western blotting analysis", "assay_type": "functional, cell-based", "conditions": "dose 5-20 µM"}, "[2]": {"test_system": "HCT-116", "test": "Induction of ferritin autophagy in human HCT-116 cells assessed as upregulation of ratio of LC3B-II to LC3B-I protein expression at 5 to 20 uM incubated for 12 hrs by Western blotting analysis", "assay_type": "functional, cell-based", "conditions": "dose 5-20 µM"}, "[3]": {"test_system": "HCT-116", "test": "Antitumor activity against human HCT-116 cells xenografted in BALB/c mouse assessed as reduction in tumor volume at 30 mg/kg,ip administrated daily for 14 days", "assay_type": "functional, organism-based", "conditions": "time 14.0 day"}, "[4]": {"test_system": "HCT-116", "test": "Antitumor activity against human HCT-116 cells xenografted in BALB/c mouse assessed as reduction in tumor density at 30 mg/kg,ip administrated daily for 14 days by hematoxylin and eosin staining based microscopic analysis", "assay_type": "functional, organism-based", "conditions": "time 14.0 day"}, "[5]": {"test_system": "HCT-116", "test": "Induction of ferroptosis in human HCT-116 cells assessed as effect on SLC7A11 protein expression at 5 to 20 uM incubated for 12 hrs by Western blotting analysis", "assay_type": "functional, cell-based", "conditions": "dose 5-20 µM"}, "[6]": {"test_system": "HCT-116", "test": "Induction of ferroptosis in human HCT-116 cells assessed as increase in 4-HNE level at 20 uM by ELISA", "assay_type": "functional, cell-based"}, "[7]": {"test": "Toxicity in BALB/c mouse xenografted with human HCT-116 cells assessed as histopathological changes in kidney at 30 mg/kg,ip administrated daily for 14 days by hematoxylin and eosin staining based microscopic analysis", "assay_type": "organism-based", "conditions": "in vivo, 336 h, time 14 day"}, "[8]": {"test_system": "HCT-116", "test": "Induction of autophagy in human HCT-116 cells assessed as formation of autophagosomes at 20 uM incubated for 12 hrs in presence of Bafilomycin A1 by confocal microscopic analysis", "assay_type": "functional, cell-based"}, "[9]": {"test_system": "HCT-116", "test": "Antiproliferative activity against human HCT-116 cells assessed as reduction in number of EdU-positive cell at 5 to 20 uM incubated for 9 hrs by Edu staining based analysis", "assay_type": "functional", "conditions": "dose 5-20 µM"}, "[10]": {"test_system": "HT-29", "test": "Cytotoxicity against human HT-29 cells assessed as inhibition of cell growth incubated for 48 hrs by CCK-8 assay", "assay_type": "functional, cell-based", "conditions": "HT-29, 48 h"}, "[11]": {"test_system": "HCT-116", "test": "Antitumor activity against human HCT-116 cells xenografted in BALB/c mouse assessed as increase in LC3B expression at 60 mg/kg,ip administrated daily for 14 days by immunohistochemistry", "assay_type": "functional, organism-based", "conditions": "time 14.0 day"}, "[12]": {"test_system": "HCT-116", "test": "Antitumor activity against human HCT-116 cells xenografted in BALB/c mouse assessed as reduction in tumor weight at 60 mg/kg,ip administrated daily for 14 days", "assay_type": "functional, organism-based", "conditions": "time 14.0 day"}, "[13]": {"test_system": "HCT-116", "test": "Antitumor activity against human HCT-116 cells xenografted in BALB/c mouse assessed as reduction in tumor volume at 60 mg/kg,ip administrated daily for 14 days", "assay_type": "functional, organism-based", "conditions": "time 14.0 day"}, "[14]": {"test_system": "HCT-116", "test": "Cytotoxicity against human HCT-116 cells assessed as inhibition of cell growth incubated for 12 hrs by CCK-8 assay", "assay_type": "functional, cell-based", "conditions": "HCT-116, 12 h"}, "[15]": {"test_system": "HCT-116", "test": "Induction of ferroptosis in human HCT-116 cells assessed as increase in intracellular ferrous ion level at 20 uM incubated for 12 hrs in presence of ferroptosis inhibitor, Ferrostatin-1 by ferroOrange probe based flow cytometric analysis", "assay_type": "functional, cell-based"}, "[16]": {"test_system": "HCT-116", "test": "Induction of ferritin autophagy in human HCT-116 cells assessed as upregulation of FTH1 protein expression at 5 to 20 uM incubated for 12 hrs by Western blotting analysis", "assay_type": "functional, cell-based", "conditions": "dose 5-20 µM"}, "[17]": {"test": "Toxicity in BALB/c mouse xenografted with human HCT-116 cells assessed as histopathological changes in liver at 30 mg/kg,ip administrated daily for 14 days by hematoxylin and eosin staining based microscopic analysis", "assay_type": "organism-based", "conditions": "in vivo, 336 h, time 14 day"}, "[18]": {"test_system": "HCT-116", "test": "Antitumor activity against human HCT-116 cells xenografted in BALB/c mouse assessed as presence of pyknotic nucleus at 30 mg/kg,ip administrated daily for 14 days by hematoxylin and eosin staining based microscopic analysis", "assay_type": "functional, organism-based", "conditions": "time 14.0 day"}, "[19]": {"test": "Toxicity in BALB/c mouse xenografted with human HCT-116 cells assessed as change in body weight at 60 mg/kg,ip administrated daily for 14 days", "assay_type": "organism-based", "conditions": "in vivo, 336 h, time 14 day"}, "[20]": {"test_system": "HCT-116", "test": "Antitumor activity against human HCT-116 cells xenografted in BALB/c mouse assessed as tumor cell rupture at 60 mg/kg,ip administrated daily for 14 days by hematoxylin and eosin staining based microscopic analysis", "assay_type": "functional, organism-based", "conditions": "time 14.0 day"}, "[21]": {"test_system": "HCT-116", "test": "Induction of autophagy in human HCT-116 cells assessed as increase in 4-HNE level at 20 uM incubated for 12 hrs by ELISA", "assay_type": "functional, cell-based"}, "[22]": {"test": "Toxicity in BALB/c mouse xenografted with human HCT-116 cells assessed as change in body weight at 30 mg/kg,ip administrated daily for 14 days", "assay_type": "organism-based", "conditions": "in vivo, 336 h, time 14 day"}, "[23]": {"test_system": "HCT-116", "test": "Induction of autophagy in human HCT-116 cells transfected with mRFP-GFP-LC3B assessed as formation of autolysosomes by measuring reduction in GFP to mRFP fluorescence ratio at 5 to 20 uM incubated for 12 hrs by Lyso tracker red staining based confocal fluorescence microscopic analysis", "assay_type": "functional, cell-based", "conditions": "dose 5-20 µM"}, "[24]": {"test_system": "HCT-116", "test": "Induction of ferroptosis in human HCT-116 cells assessed as increase in 4-HNE level in presence of deferoxamine mesylate at 20 uM by ELISA", "assay_type": "functional, cell-based"}, "[25]": {"test_system": "HCT-116", "test": "Induction of ferritin autophagy in human HCT-116 cells assessed as upregulation of NCOA4 protein expression at 20 uM incubated for 12 hrs by immunoprecipitation assay", "assay_type": "functional, cell-based"}, "[26]": {"test_system": "HCT-116", "test": "Induction of ferroptosis in human HCT-116 cells assessed as increase in ferrous ion level in lysosomes at 20 uM incubated for 12 hrs by ferroOrange probe based confocal fluorescence microscopic analysis", "assay_type": "functional, cell-based"}, "[27]": {"test_system": "HCT-116", "test": "Induction of autophagy in human HCT-116 cells assessed as increase in intracellular ferrous ion level at 20 uM incubated for 12 hrs in presence of autophagy inhibitor, Bafilomycin A1 by Lyso tracker green staining based confocal microscopic analysis", "assay_type": "functional, cell-based"}, "[28]": {"test": "Toxicity in BALB/c mouse xenografted with human HCT-116 cells assessed as histopathological changes in spleen at 60 mg/kg,ip administrated daily for 14 days by hematoxylin and eosin staining based microscopic analysis", "assay_type": "organism-based", "conditions": "in vivo, 336 h, time 14 day"}, "[29]": {"test_system": "HCT-116", "test": "Antitumor activity against human HCT-116 cells xenografted in BALB/c mouse assessed as increase in 4-HNE level in tumor at 60 mg/kg,ip administrated daily for 14 days by ELISA", "assay_type": "functional, organism-based", "conditions": "time 14.0 day"}, "[30]": {"test": "Toxicity in BALB/c mouse xenografted with human HCT-116 cells assessed as histopathological changes in spleen at 30 mg/kg,ip administrated daily for 14 days by hematoxylin and eosin staining based microscopic analysis", "assay_type": "organism-based", "conditions": "in vivo, 336 h, time 14 day"}, "[31]": {"test": "Toxicity in BALB/c mouse xenografted with human HCT-116 cells assessed as histopathological changes in kidney at 60 mg/kg,ip administrated daily for 14 days by hematoxylin and eosin staining based microscopic analysis", "assay_type": "organism-based", "conditions": "in vivo, 336 h, time 14 day"}, "[32]": {"test": "Toxicity in BALB/c mouse xenografted with human HCT-116 cells assessed as histopathological changes in heart at 60 mg/kg,ip administrated daily for 14 days by hematoxylin and eosin staining based microscopic analysis", "assay_type": "organism-based", "conditions": "in vivo, 336 h, time 14 day"}, "[33]": {"test_system": "HCT-116", "test": "Antitumor activity against human HCT-116 cells xenografted in BALB/c mouse assessed as increase in FTH1 expression at 60 mg/kg,ip administrated daily for 14 days by immunohistochemistry", "assay_type": "functional, organism-based", "conditions": "time 14.0 day"}, "[34]": {"test": "Toxicity in BALB/c mouse xenografted with human HCT-116 cells assessed as histopathological changes in liver at 60 mg/kg,ip administrated daily for 14 days by hematoxylin and eosin staining based microscopic analysis", "assay_type": "organism-based", "conditions": "in vivo, 336 h, time 14 day"}}, "note": "Active and inactive are the calls of the source. The rule behind the calls is not given here."}
{"smiles": "C=C(Cl)C(=O)NCCCCCCCCCCCC(=O)Oc1c(OC)ccc2c1[C@@]13CCN(C)[C@@H](C2)[C@H]1C=C(OC)C(=O)C3", "values": [{"measurement": "Activity", "setting": "[1]", "value": "inactive"}, {"measurement": "Activity", "setting": "[2]", "value": "Active"}, {"measurement": "Activity", "setting": "[3]", "value": "Active"}, {"measurement": "Activity", "setting": "[4]", "value": "Active"}, {"measurement": "Activity", "setting": "[5]", "value": "inactive"}, {"measurement": "Activity", "setting": "[6]", "value": "Active"}, {"measurement": "Activity", "setting": "[7]", "value": "Non-Toxic"}, {"measurement": "Activity", "setting": "[8]", "value": "inactive"}, {"measurement": "Activity", "setting": "[9]", "value": "Active"}, {"measurement": "IC50", "setting": "[10]", "value": 6.71, "unit": "µM"}, {"measurement": "Activity", "setting": "[11]", "value": "Active"}, {"measurement": "Activity", "setting": "[12]", "value": "Active"}, {"measurement": "Activity", "setting": "[13]", "value": "Active"}, {"measurement": "IC50", "setting": "[14]", "value": 15.1, "unit": "µM"}, {"measurement": "Activity", "setting": "[15]", "value": "inactive"}, {"measurement": "Activity", "setting": "[16]", "value": "Active"}, {"measurement": "Activity", "setting": "[17]", "value": "Non-Toxic"}, {"measurement": "Activity", "setting": "[18]", "value": "Active"}, {"measurement": "Activity", "setting": "[19]", "value": "Non-Toxic"}, {"measurement": "Activity", "setting": "[20]", "value": "Active"}, {"measurement": "Activity", "setting": "[21]", "value": "Active"}, {"measurement": "Activity", "setting": "[22]", "value": "Non-Toxic"}, {"measurement": "Activity", "setting": "[23]", "value": "Active"}, {"measurement": "Activity", "setting": "[24]", "value": "inactive"}, {"measurement": "Activity", "setting": "[25]", "value": "inactive"}, {"measurement": "Activity", "setting": "[26]", "value": "Active"}, {"measurement": "Activity", "setting": "[27]", "value": "inactive"}, {"measurement": "Activity", "setting": "[28]", "value": "Non-Toxic"}, {"measurement": "Activity", "setting": "[29]", "value": "Active"}, {"measurement": "Activity", "setting": "[30]", "value": "Non-Toxic"}, {"measurement": "Activity", "setting": "[31]", "value": "Non-Toxic"}, {"measurement": "Activity", "setting": "[32]", "value": "Non-Toxic"}, {"measurement": "Activity", "setting": "[33]", "value": "Active"}, {"measurement": "Activity", "setting": "[34]", "value": "Non-Toxic"}]}
